Values after ≈ are worked out from the molar mass of the structure shown. Read-outs that look alike come from different tables or passages of the source.
What was measured:
P. aeruginosa ATCC 27853 = experiment: MIC, broth microdilution (CLSI); type: cell-based, Pseudomonas aeruginosa; conditions: MHBCA; for MIC in combination with PAβN (control antibiotics): + 25 µg/mL PAβN
Method: (§1) All bacterial strains (see description and sources Table S1) were stored at −80 °C, and grown on tryptone soya agar (TSA) at 35 °C. The iron-deprived (ID)-MHBCA (cation-adjusted Muller-Hinton Broth, Becton Dickinson, Mississauga, ON, Canada) medium was prepared as reported by refs. [21],[50]. Briefly, MHBCA was treated with 10% Chelex® 50-100 mesh (Sigma) and stirred for 6 h at room temperature. The resin was removed by filtration. Divalent Ca^2+ (CaCl2), Mg^2+ (MgCl2), and Zn^2+(ZnSO4), were then added in the iron-depleted medium at 22, 12, and 1 μg/ml respectively. Finally, the pH was adjusted to 7.3, and the medium was sterilized with a 0.2-μm filter. Regular MHBCA (i.e., not treated with Chelex®) was used to compare the inhibitory activity of conjugates in iron-sufficient conditions.
(§2) Minimal inhibitory concentrations (MICs) were performed using a broth microdilution technique according to the Clinical and Laboratory Standards Institute (CLSI) guidelines. MICs were determined in MHBCA and in ID-MHBCA. To check the impact of β-lactamases, MICs in the presence of a β-lactamase inhibitor were also determined. The inhibitor was homogenized at 2X the final concentration and added to the bacterial inoculum just before distributing cells into the wells containing the drug dilutions. The final concentration of each inhibitor was 4 μg/mL for clavulanic acid (tested against K. pneumoniae) and 200 μg/mL for 3-aminophenylboronic acid (tested against P. aeruginosa and A. baumannii).

A. baumannii ATCC 19606 = experiment: MIC, broth microdilution (CLSI); type: cell-based, Acinetobacter baumannii; conditions: MHBCA
Method: as §1, with “conditions. The resin used for Chelex treatment was always fresh and had never been regenerated, ensuring consistent iron removal.” for “conditions.”
as §2

E. coli PBP3 = test system: E. coli PBP3; design: method as in PMID 29061741; conditions: cited from earlier work
E. coli ΔacrAB = experiment: MIC, efflux pump mutant; type: cell-based, Escherichia coli
Method: as §2

E. coli MC4100 = experiment: MIC; type: cell-based, Escherichia coli; conditions: MC4100, MHBCA
Method: as §1, §2

[1] = test system: O=C(Cc1cccs1)N[C@@H]1C(=O)N2C(C(=O)O)=C(/C=C/c3ccc([N+](=O)[O-])cc3[N+](=O)[O-])CS[C@H]12; experiment: purified protein, by the assay type; type: biochemical, A. baumannii ATCC 19606; conditions: other: 20 mM NaHCO3 added, NH = no hydrolysis detected, pH 7.0
Method: (§3) Enzyme concentrations were 20 nM for AmpC and SHV-1, and 50 nM for OXA-98. Quartz cuvette (FireflySci Inc., Northport, NY) with 1 cm length path and 2 mm inside width was used with an Ultrospec 2100 Pro (Biochrom, Harvard Bioscience Inc., USA) to acquire the kinetic measures. […] The following extinction coefficients (Δε) and wavelengths (λ) were used:
(§4) The steady-state parameters (Km and Kcat) were determined by plotting the initial velocity against substrate concentrations (Michaelis–Menten curve). The Kcat was measured using the Vmax (μM/sec) divided by the total enzyme concentration and the catalytic efficiency was further calculated (Kcat/Km). SHV-1 parameters were determined with three Michaelis–Menten curves of at least seven substrate concentrations, while OXA-98 and AmpC were duplicates of curves of at least seven substrate concentrations. […] Initial velocities were measured at room temperature (25 °C). The Vmax and Km were calculated using least squares fit regression in GraphPad version 10.2.2. Ki was measured using a derivative of IC50 with an adaptation of the Cheng–Prusoff equation[55]. […] The corrected Ki was calculated using this formula: Kicorrected=Ki(observed)/1+S/KmNCF

[2] = test system: CC1(C)S[C@@H]2[C@H](NC(=O)[C@H](N)c3ccccc3)C(=O)N2[C@H]1C(=O)O; experiment: purified protein, by the assay type; type: biochemical, A. baumannii ATCC 19606; conditions: other: 20 mM NaHCO3 added, NH = no hydrolysis detected, pH 7.0
Method: as §3, §4

[3] = test system: O=C(Cc1cccs1)N[C@@H]1C(=O)N2C(C(=O)O)=C(/C=C/c3ccc([N+](=O)[O-])cc3[N+](=O)[O-])CS[C@H]12; experiment: purified protein, by the assay type; conditions: other: Michaelis–Menten curves, n = 3, 25 °C, pH 7.0
[4] = test system: CC1(C)S[C@@H]2[C@H](NC(=O)[C@H](N)c3ccccc3)C(=O)N2[C@H]1C(=O)O; experiment: purified protein, by the assay type; conditions: other: Michaelis–Menten curves, n = 3, 25 °C, pH 7.0
AmpC (PDC-5) = AmpC (PDC-5) (Pseudomonas aeruginosa, UniProt P24735, R79Q/T105A); experiment: biochemical; type: biochemical, P. aeruginosa ATCC 27853; conditions: n = 2
Method: The purification of AmpC from the culture supernatant obtained above was conducted as described in the Catwright and Waley protocol[52] using an Affi-gel 10 matrix (Bio-Rad, Hercules, CA, USA) loaded in a column (G-Bioscience, St-Louis, MO, USA). First, the resin was washed with cold deionized water. The resin was then collected and mixed with 20 mL of the 3-aminophenylboronic acid solution (1 M KHCO3 containing 2 g of 3-aminophenyl boronic acid and 2 g of sorbitol) at 4 °C for 1 h, and the pH was maintained at 8 with solid KHCO3. The mixture was loaded onto the column and washed with 10 column volumes of 1 M NaCl/0.5 M sorbitol (pH 7), followed by 10 column volumes of 0.5 M borate (pH 7), and then 10 column volumes of the loading buffer (20 mM triethanolamine HCl/0.5 M NaCl, pH 7). The sample was dialyzed in the loading buffer before being loaded onto the column. The column was washed with the loading buffer until no absorbance was measured at OD280. AmpC was eluted in fractions of 1 mL with 0.5 M borate/0.5 M NaCl pH 7. […] The purity was visualized on a 10% bis-acrylamide gel. Only pure fractions showing a single band at 40 kDa were pooled together and then dialyzed at 4 °C in a KP buffer 0.05 M pH 7 (see Fig. S2). The protein concentration was determined with a Bradford protein reagent (Bio-Rad).
as §3, §4

E. coli lptD4213 = experiment: MIC, hyperpermeable mutant; type: cell-based, Escherichia coli; conditions: lptD4213, MHBCA (+)
Method: as §1, with “conditions. The resin used for Chelex treatment was always fresh and had never been regenerated, ensuring consistent iron removal.” for “conditions.”
as §2

[5] = test system: P. aeruginosa 2302 MexAB, MexCD, MexEF upregulated; experiment: MIC, efflux pump overexpressing strain; type: cell-based, Pseudomonas aeruginosa; conditions: Pseudomonas aeruginosa
Method: as §2

[6] = test system: P. aeruginosa 1625 ΔmexAB-oprM, ΔmexEF-oprN; experiment: MIC, efflux pump mutant; type: cell-based, Pseudomonas aeruginosa; conditions: Pseudomonas aeruginosa
Method: as §2

AmpC (PDC-5), sequence (P24735 27-397 R79Q/T105A): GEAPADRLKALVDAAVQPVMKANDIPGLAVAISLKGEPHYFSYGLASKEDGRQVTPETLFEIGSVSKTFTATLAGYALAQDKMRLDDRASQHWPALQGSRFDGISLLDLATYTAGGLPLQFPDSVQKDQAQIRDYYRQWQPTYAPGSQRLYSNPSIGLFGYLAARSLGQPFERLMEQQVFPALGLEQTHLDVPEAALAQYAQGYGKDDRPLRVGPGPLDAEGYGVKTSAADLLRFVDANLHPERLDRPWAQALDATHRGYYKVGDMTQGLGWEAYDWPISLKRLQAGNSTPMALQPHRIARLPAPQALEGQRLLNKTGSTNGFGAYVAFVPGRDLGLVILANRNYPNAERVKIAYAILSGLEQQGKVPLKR

In the case of `CO[C@H]1/C=C/O[C@@]2(C)Oc3c(C)c(O)c4c(O)c(c(/C=N/N5CCN(C)CC5)c(O)c4c3C2=O)NC(=O)/C(C)=C\C=C\[C@H](C)[C@H](O)[C@@H](C)[C@@H](O)[C@@H](C)[C@H](OC(C)=O)[C@@H]1C` [RIF, rifampicin, reference compound], the “MIC in combination with PAβN (control antibiotics)” value (from here on “MIC in combination with PAβN”) (P. aeruginosa ATCC 27853) is reported as 2 mg/L, the “MIC (control antibiotics)” value (P. aeruginosa ATCC 27853; without PAβN) is reported as 16 mg/L (≈ 19.4 µM) and the “MIC in combination with PAβN” value (A. baumannii ATCC 19606; + 25 µg/mL PAβN) is reported as ≤ 0.012 mg/L. For the same compound, the “MIC (control antibiotics)” value (A. baumannii ATCC 19606; without PAβN) was 16 mg/L (≈ 19.4 µM).
In the case of `CC(C)(O/N=C(\C(=O)N[C@@H]1C(=O)N2C(C(=O)[O-])=C(C[N+]3(CCNC(=O)c4ccc(O)c(O)c4Cl)CCCC3)CS[C@H]12)c1csc(N)n1)C(=O)O` [cefiderocol], the “decrease in the IC50 for E. coli PBP3 compared to ceftazidime” value (E. coli PBP3) is given as 11 fold.
For `CC[C@H]1OC(=O)[C@H](C)[C@@H](O[C@H]2C[C@@](C)(OC)[C@@H](O)[C@H](C)O2)[C@H](C)[C@@H](O[C@@H]2O[C@H](C)C[C@H](N(C)C)[C@H]2O)[C@](C)(O)C[C@@H](C)C(=O)[C@H](C)[C@@H](O)[C@]1(C)O` [ERY, erythromycin], the “MIC in combination with PAβN” value (P. aeruginosa ATCC 27853) was 32 mg/L, the MIC (E. coli ΔacrAB; Escherichia coli) was 4 µM (≈ 2.94 µg/mL) and the “MIC (control antibiotic)” value (E. coli ΔacrAB; deletion of acrAB) was 4 mg/L (≈ 5.45 µM). The “reduction of MIC by deletion of acrAB” value (E. coli ΔacrAB; versus parent E. coli) was 32 fold and the “MIC in combination with PAβN” value (E. coli MC4100; + 25 µg/mL PAβN) was 16 mg/L.
Compound “OXA-98 (Acinetobacter baumannii ATCC 19606 = CIP 70.34 = JCM 6841)” has a Km [1] of 343 ± 10 µM, a kcat [1] of 3.5 ± 0.2 s⁻¹ and a kcat/Km [1] of 10000 ± 0 M⁻¹ s⁻¹. For the same compound, the Km [2] was 490 ± 12 µM, the kcat [2] was 22 ± 1 s⁻¹ and the kcat/Km [2] was 40000 ± 0 M⁻¹ s⁻¹.
SHV-1 (Klebsiella pneumoniae) showed a Km [3] of 25 ± 3 µM, a kcat [3] of 247 ± 48 s⁻¹ and a kcat/Km [3] of 9.8e+06 ± 2.3e+06 M⁻¹ s⁻¹. The Km [4] was 164 ± 4 µM, the kcat [4] was 1565 ± 42 s⁻¹ and the kcat/Km [4] was 9.5e+06 ± 300000 M⁻¹ s⁻¹.
With `O=C(Cc1cccs1)N[C@@H]1C(=O)N2C(C(=O)O)=C(/C=C/c3ccc([N+](=O)[O-])cc3[N+](=O)[O-])CS[C@H]12` [NCF, nitrocefin] the “AmpC (PDC-5) Vmax” value (AmpC (PDC-5)) was 121 ± 3 µmol·mg/min and the Km (AmpC (PDC-5); read-out: AmpC (PDC-5) Km, Michaelis–Menten curves) was 103 ± 4 µM.
For `CN[C@H](CC(C)C)C(=O)N[C@H]1C(=O)N[C@@H](CC(N)=O)C(=O)N[C@H]2C(=O)N[C@H]3C(=O)N[C@H](C(=O)N[C@H](C(=O)O)c4cc(O)cc(O)c4-c4cc3ccc4O)[C@H](O)c3ccc(c(Cl)c3)Oc3cc2cc(c3O[C@@H]2O[C@H](CO)[C@@H](O)[C@H](O)[C@H]2O[C@H]2C[C@](C)(N)[C@H](O)[C@H](C)O2)Oc2ccc(cc2Cl)[C@H]1O` [VAN, vancomycin, reference compound], the “MIC (control antibiotic)” value (E. coli lptD4213) was 0.5 mg/L (≈ 0.345 µM) and the “MIC (control antibiotics)” value (E. coli MC4100; without PAβN) was > 128 mg/L.
In the case of `C[C@H]1COc2c(N3CCN(C)CC3)c(F)cc3c(=O)c(C(=O)O)cn1c23` [LVX, levofloxacin], the MIC [5] is reported as 16 µM, the MIC ([5]; read-out: MIC (control drug)) is reported as 16 mg/L and the MIC [6] is reported as ≤ 0.06 µM. The MIC ([6]; read-out: MIC (control drug)) was ≤ 0.06 mg/L.
